Assay results from patent publication US10426778B2, “Prophylactic agent and/or therapeutic agent for diffuse large B-cell lymphoma” (ONO PHARMACEUTICAL CO., LTD., priority 2014, dated 2019).

Tested on: ABC-DLBCL patients
Experiment: Open label multicenter non-randomized clinical trial of the present compound as monotherapy in recurrent or refractory ABC-DLBCL patients
Type: in vivo, human
Procedure: A clinical trial was conducted by an open label multicenter non-randomized test by administering 6-amino-9-[(3R)-1-(2-butynoyl)-3-pyrrolidinyl]-7-(4-phenoxyphenyl)-7,9-dihydro-8H-purin-8-one hydrochloride, the present compound, as monotherapy to an ABC-DLBCL patient.
Among the patients who had already received treatment, who had been diagnosed as a non-Hodgkin's lymphoma, for whom higher preference order of treatment was not present, and who fell under the following definition of “recurrent” or “refractory”, patients satisfying the following conditions entered.
Recurrent: Patients who attained Complete Response (CR), Complete Response, unconfirmed (CRu), CR with incomplete marrow recovery (CRi) or Partial Response (PR) for 6 months or longer after the last treatment of non-Hodgkin's lymphoma, and for whom pathological advance was recognized.
Refractory: Patients who could not attain CR, CRu, CRi or PR after the last treatment of non-Hodgkin's lymphoma, or patients who acquired CR, CRu, CRi or PR for shorter than 6 months after the last treatment, but for whom pathological advance was recognized.
Condition: Two or more NHL treatments have already failed.
A fixed dose of the present compound was orally administered once per day, with one cycle being treatment for 28 days in 3 patients per one cohort. The schedule was such that this cycle was conducted until 6 cycles, and could be maximally extended to 24 cycles. In the first cohort, all the patients were administered at a fixed dose of 20 mg of the present compound.
Regarding the NHL patients who entered under the above conditions, an immunohistochemical method or gene expression profiling was conducted according to a conventional method using a diagnostic sample obtained by tissue biopsy excising a part of affected lymph node, so that patients affected with ABC-DLBCL were extracted.
Primary evaluation items were safety, tolerance and dose limiting toxicities (DLTs). These items were evaluated using manifestation of adverse event, physical examination, clinical test, vital sign and cardiograph. In addition, the intensity of the adverse event was determined using Common Terminology Criteria for Adverse Events (CTCAE) version 4.0 of the National Cancer Institute.
Secondary evaluation items were Overall Response Rate (ORR), Complete Response Rate (CR, CRu, CRi), Partial Response Rate (PR), Progression Free Survival (PFS), Overall Survival (OS), Duration of Response, Event Free Survival (EFS), Pharmacokinetics (PK) and Pharmacodynamics (PD). In addition, the evaluations of CR, CRu and PR were conducted by referring to evaluation criteria described in Journal of Clinical Oncology, Vol. 17, No. 4, pages 1244-1253, 1999.
Biopsy samples of tumor were obtained from ABC-DLBCL patients before administration of the present compound. From the samples, genomic DNA was extracted by conventional method, and the presence or absence of CD79B mutation was confirmed in accordance with the method described in Nature, No. 463, pages 88-92, 2010. As a result, it was seen that, among the 8 ABC-DLBCL patients, all of 7 evaluable patients had CD79B wild-type gene background.

[1] = in 8 cases, cohort 4 (160 mg) or cohort 5 (520 mg)

CC#CC(=O)N1CC[C@@H](n2c(=O)n(-c3ccc(Oc4ccccc4)cc3)c3c(N)ncnc32)C1.Cl [present compound, 6-amino-9-[(3R)-1-(2-butynoyl)-3-pyrrolidinyl]-7-(4-phenoxyphenyl)-7,9-dihydro-8H-purin-8-one hydrochloride]
Overall Response Rate (ORR) in ABC-DLBCL patients having CD79B wild-type (6 cases in 7 cases): 85% | bleeding-associated event such as intracranial bleeding as adverse event (13 ABC-DLBCL patients): not seen at all | tolerance (13 ABC-DLBCL patients administered the present compound): high tolerance | Overall Response Rate (ORR) (ABC-DLBCL patients, 8 cases, cohort 4 (160 mg) or cohort 5 (520 mg), oral once per day): 75% | adverse events classified into grade 3 (drug reaction and lymphopenia) (among the 5 cases with adverse event of 13 cases, CTCAE version 4.0): 2 cases | PR cases [1]: 6 cases | disease progression cases [1]: 2 cases | median value of decrease in lymph node (in the 6 PR cases, cohort 4 (160 mg) or cohort 5 (520 mg)): 81.5% | decrease in lymph node swelling recognized (of 8 ABC-DLBCL patients, first administration cycle, oral once per day): 6 patients | adverse event associated with the present compound (of 13 cases): 5 cases
